Experimental data from US8912221B2, “Biaryl amide derivatives” (Hoffmann-La Roche Inc., priority 2010, dated 2014).

Key:
[1] = biological target: T1, Bradykinin-1 receptor (Homo sapiens (Human), UniProt P46663); assay: Calcium Mobilization Assay; assay type: cell-based; conditions: GeneBLAzer Bradykinin (B1)-NFAT-bla CHO-K1 cells; antagonist activity, FLIPR; read-out: Ca mobilization IC50
Method: Calcium Mobilization Assay
GeneBLAzer® Bradykinin (B1)-NFAT-bla CHO-K1 cells (from Invitrogen) stably overexpressing the human bradykinin 1 receptor were cultured in DMEM (high glucose) supplemented with 10% dialysed FBS, 1% NEAA (non essential amino acids) 1% penicillin/streptomycin, 1% G418 and 0.1 mg/ml zeocin.
For the assay cells were grown overnight in 384-well black clear flat bottom polystyrene plates (Costar) at 37° C. at 5% CO2. After washing with DMEM, 20 mM Hepes, 2.5 mM probenecid, 0.1% BSA (DMEM assay buffer) cells were loaded with 4 μM Fluo-4 in the same DMEM assay buffer for 2 hours at 30° C. Excess dye was removed and cells were washed with DMEM assay buffer. 384-well compound plates were prepared with DMEM assay buffer/0.5% DMSO with or without various concentrations of test compounds. Usually compounds were tested for agonist and antagonist activity.
Test compounds were added to the assay plate and agonist activity was monitored as fluorescence for 80 seconds with a FLIPR (488 nm excitation; 510-570 nm emission; Molecular Devices). […] Increases in intracellular calcium are reported as maximum fluorescence after agonist exposure minus basal fluorescence before exposure. Antagonist activity is indicated as inhibitor concentration required for 50% inhibition of specific calcium increases.

[2] = biological target: T1, Bradykinin-1 receptor; assay: Receptor Binding Assay; conditions: membranes from CHO-K1 cells overexpressing Bradykinin-1 receptor; 6 nM [3H]Kallidin (Des Arg10, Leu9); read-out: B1R Binding Ki
Method: Binding assays were done with membranes from CHO-K1 cells overexpressing Bradykinin-1 receptor.
For binding, Bradykinin-1 receptor antagonist compounds were added in various concentrations in 50 mM Tris pH 7.4, 5 mM MgCl2 together with 6 nM Kallidin (Des Arg^10, Leu^9), [3,4-Prolyl-3,4-^3H(N)] (PerkinElmer, 1.85-4.44 TBq/mmol) to 40 μg membrane protein containing approximately 1 fmol Bradykinin-1 receptor and incubated for 15 min at 27° C. To determine non-specific binding 10 μM Lys-(Des-Arg^9)-Bradykinin (Bachem) was added. Membranes were harvested through GF/B (glass fiber filter; PerkinElmer) plates, equilibrated with 0.5% polyethylenimine, air dried at 50° C. for 2 hr. Radioactivity was determined by counting in a topcounter (NXT Packard). Specific binding was defined as total binding minus nonspecific binding and typically represents about 90-95% of the total binding. Antagonist activity is expressed as Ki: inhibitor concentration required for 50% inhibition of specific binding corrected for the concentration of the radioligand.

T1 sequence (P46663 whole entry): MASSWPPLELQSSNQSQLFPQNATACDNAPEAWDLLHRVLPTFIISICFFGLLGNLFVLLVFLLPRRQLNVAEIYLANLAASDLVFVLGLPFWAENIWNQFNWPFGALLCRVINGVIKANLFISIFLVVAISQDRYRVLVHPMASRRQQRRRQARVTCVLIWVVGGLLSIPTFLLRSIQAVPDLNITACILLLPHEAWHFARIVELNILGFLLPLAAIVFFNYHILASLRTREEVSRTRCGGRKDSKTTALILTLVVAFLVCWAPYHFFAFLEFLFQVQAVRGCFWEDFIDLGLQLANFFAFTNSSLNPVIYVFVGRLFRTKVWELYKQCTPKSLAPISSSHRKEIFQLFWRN

IC50 [1] [nM]	Ki [2] [nM]	Structure (SMILES)
1.1	3	COc1cc(C(=O)NC2(C(=O)N[C@H](C)c3ncc(-c4cc(Cl)cc(Cl)c4OCC(F)F)cc3F)COC2)on1 [Example 18, 3-Methoxy-isoxazole-5-carboxylic acid [3-((R)-1-{5-[3,5-dichloro-2-(2,2-difluoro-ethoxy)-phenyl]-3-fluoro-pyridin-2-yl}-ethylcarbamoyl)-oxetan-3-yl]-amide]
1.2	5.1	Cc1nc(-c2c(F)cc(Cl)cc2-c2cnc([C@@H](C)NC(=O)C3(NC(=O)c4nnc(C)o4)COC3)c(F)c2)no1 [Example 19, 5-Methyl-[1,3,4]oxadiazole-2-carboxylic acid [3-((R)-1-{5-[5-chloro-3-fluoro-2-(5-methyl-[1,2,4]oxadiazol-3-yl)-phenyl]-3-fluoro-pyridin-2-yl}-ethylcarbamoyl)-oxetan-3-yl]-amide]
0.4	1.6	Cc1cc(C(=O)NC2(C(=O)N[C@H](C)c3ncc(-c4cc(Cl)cc(F)c4-c4nnn(C)n4)cc3F)COC2)on1 [Example 20, 3-Methyl-isoxazole-5-carboxylic acid [3-((R)-1-{5-[5-chloro-3-fluoro-2-(2-methyl-2H-tetrazol-5-yl)-phenyl]-3-fluoro-pyridin-2-yl}-ethylcarbamoyl)-oxetan-3-yl]-amide]
1	4.3	C[C@@H](NC(=O)C1(NC(=O)C(F)(F)F)COC1)c1ncc(-c2cc(Cl)cc(F)c2-c2nnn(C)n2)cc1F [Example 21, 3-(2,2,2-Trifluoro-acetylamino)-oxetane-3-carboxylic acid ((R)-1-{5-[5-chloro-3-fluoro-2-(2-methyl-2H-tetrazol-5-yl)-phenyl]-3-fluoro-pyridin-2-yl}-ethyl)-amide]
0.5	1.7	C[C@@H](NC(=O)C1(NC(=O)C(F)(F)F)COC1)c1ccc(-c2cc(Cl)cc(F)c2-c2nnn(C)n2)cc1F [Example 22, 3-(2,2,2-Trifluoro-acetylamino)-oxetane-3-carboxylic acid {(R)-1-[5′-chloro-3,3′-difluoro-2′-(2-methyl-2H-tetrazol-5-yl)-biphenyl-4-yl]-ethyl}-amide]
0.1	1	Cc1cc(C(=O)NC2(C(=O)N[C@H](C)c3ccc(-c4cc(Cl)cc(F)c4-c4nnn(C)n4)cc3F)COC2)on1 [Example 23, 3-Methyl-isoxazole-5-carboxylic acid (3-{(R)-1-[5′-chloro-3,3′-difluoro-2′-(2-methyl-2H-tetrazol-5-yl)-biphenyl-4-yl]-ethylcarbamoyl}-oxetan-3-yl)-amide]
0.1	1.2	Cc1cc(C(=O)NC2(C(=O)N[C@H](C)c3ccc(-c4cc(Cl)cc(F)c4-c4noc(C)n4)cc3F)COC2)on1 [Example 24, 3-Methyl-isoxazole-5-carboxylic acid (3-{(R)-1-[5′-chloro-3,3′-difluoro-2′-(5-methyl-[1,2,4]oxadiazol-3-yl)-biphenyl-4-yl]-ethylcarbamoyl}-oxetan-3-yl)-amide]
0.4	1	Cc1nc(-c2c(F)cc(Cl)cc2-c2cnc([C@@H](C)NC(=O)C3(NC(=O)c4ccnnc4)COC3)c(F)c2)no1 [Example 25, Pyridazine-4-carboxylic acid [3-((R)-1-{5-[5-chloro-3-fluoro-2-(5-methyl-[1,2,4]oxadiazol-3-yl)-phenyl]-3-fluoro-pyridin-2-yl}-ethylcarbamoyl)-oxetan-3-yl]-amide]
490	503	Cc1nc(-c2c(F)cc(Cl)cc2-c2cnc([C@@H](C)NC(=O)C3(NC(=O)c4nccn4C)COC3)c(F)c2)no1 [Example 26, 1-Methyl-1H-imidazole-2-carboxylic acid [3-((R)-1-{5-[5-chloro-3-fluoro-2-(5-methyl-[1,2,4]oxadiazol-3-yl)-phenyl]-3-fluoro-pyridin-2-yl}-ethylcarbamoyl)-oxetan-3-yl]-amide]
107	82.6	Cc1nc(-c2c(F)cc(Cl)cc2-c2cnc([C@@H](C)NC(=O)C3(NC(=O)c4cn(C)cn4)COC3)c(F)c2)no1 [Example 27, 1-Methyl-1H-imidazole-4-carboxylic acid [3-((R)-1-{5-[5-chloro-3-fluoro-2-(5-methyl-[1,2,4]oxadiazol-3-yl)-phenyl]-3-fluoro-pyridin-2-yl}-ethylcarbamoyl)-oxetan-3-yl]-amide]
0.1	1.4	Cc1nc(-c2c(F)cc(Cl)cc2-c2cnc([C@@H](C)NC(=O)C3(NC(=O)c4cncc(N)c4)COC3)c(F)c2)no1 [Example 28, 5-Amino-N-[3-((R)-1-{5-[5-chloro-3-fluoro-2-(5-methyl-[1,2,4]oxadiazol-3-yl)-phenyl]-3-fluoro-pyridin-2-yl}-ethylcarbamoyl)-oxetan-3-yl]-nicotinamide]
9.4	14.1	Cc1nc(-c2c(F)cc(Cl)cc2-c2cnc([C@@H](C)NC(=O)C3(NC(=O)c4cccnn4)COC3)c(F)c2)no1 [Example 29, Pyridazine-3-carboxylic acid [3-((R)-1-{5-[5-chloro-3-fluoro-2-(5-methyl-[1,2,4]oxadiazol-3-yl)-phenyl]-3-fluoro-pyridin-2-yl}-ethylcarbamoyl)-oxetan-3-yl]-amide]
0.2	1.3	Cc1nc(-c2c(F)cc(Cl)cc2-c2cnc([C@@H](C)NC(=O)C3(NC(=O)c4cccnc4)COC3)c(F)c2)no1 [Example 30, N-[3-((R)-1-{5-[5-Chloro-3-fluoro-2-(5-methyl-[1,2,4]oxadiazol-3-yl)-phenyl]-3-fluoro-pyridin-2-yl}-ethylcarbamoyl)-oxetan-3-yl]-nicotinamide]
< 0.032	0.6	COc1ncc(C(=O)NC2(C(=O)N[C@H](C)c3ccc(-c4cc(Cl)cc(F)c4-c4noc(C)n4)cc3F)COC2)cn1 [Example 31, 2-Methoxy-pyrimidine-5-carboxylic acid (3-{(R)-1-[5′-chloro-3,3′-difluoro-2′-(5-methyl-[1,2,4]oxadiazol-3-yl)-biphenyl-4-yl]-ethylcarbamoyl}-oxetan-3-yl)-amide]
0.2	2.3	C[C@@H](NC(=O)C1(NC(=O)c2ccno2)COC1)c1ccc(-c2cc(Cl)cc(Cl)c2OCC(F)F)cc1F [Example 32, Isoxazole-5-carboxylic acid (3-{(R)-1-[3′,5′-dichloro-2′-(2,2-difluoro-ethoxy)-3-fluoro-biphenyl-4-yl]-ethylcarbamoyl}-oxetan-3-yl)-amide]
5.3	19.9	C[C@@H](NC(=O)C1(NC(=O)C(F)(F)F)COC1)c1ccc(-c2cc(Cl)cc(Cl)c2OCC(F)F)cc1F [Example 33, 3-(2,2,2-Trifluoro-acetylamino)-oxetane-3-carboxylic acid {(R)-1-[3′,5′-dichloro-2′-(2,2-difluoro-ethoxy)-3-fluoro-biphenyl-4-yl]-ethyl}-amide]
0.4	2.2	COc1cc(C(=O)NC2(C(=O)N[C@H](C)c3ncc(-c4cc(Cl)cc(F)c4-c4nnn(C)n4)cc3F)COC2)on1 [Example 34, 3-Methoxy-isoxazole-5-carboxylic acid [3-((R)-1-{5-[5-chloro-3-fluoro-2-(2-methyl-2H-tetrazol-5-yl)-phenyl]-3-fluoro-pyridin-2-yl}-ethylcarbamoyl)-oxetan-3-yl]-amide]
0.3	3.3	COc1ncc(C(=O)NC2(C(=O)N[C@H](C)c3ccc(-c4cc(Cl)cc(Cl)c4OCC(F)F)cc3F)COC2)cn1 [Example 35, 2-Methoxy-pyrimidine-5-carboxylic acid (3-{(R)-1-[3′,5′-dichloro-2′-(2,2-difluoro-ethoxy)-3-fluoro-biphenyl-4-yl]-ethylcarbamoyl}-oxetan-3-yl)-amide]
0.2	1.2	COc1ncc(C(=O)NC2(C(=O)N[C@H](C)c3ncc(-c4cc(Cl)cc(F)c4-c4nnn(C)n4)cc3F)COC2)cn1 [Example 36, 2-Methoxy-pyrimidine-5-carboxylic acid [3-((R)-1-{5-[5-chloro-3-fluoro-2-(2-methyl-2H-tetrazol-5-yl)-phenyl]-3-fluoro-pyridin-2-yl}-ethylcarbamoyl)-oxetan-3-yl]-amide]
0.4	3.5	COc1cc(C(=O)NC2(C(=O)N[C@H](C)c3ccc(-c4cc(Cl)cc(Cl)c4OCC(F)F)cc3F)COC2)on1 [Example 37, 3-Methoxy-isoxazole-5-carboxylic acid (3-{(R)-1-[3′,5′-dichloro-2′-(2,2-difluoro-ethoxy)-3-fluoro-biphenyl-4-yl]-ethylcarbamoyl}-oxetan-3-yl)-amide]
